In US20150335558A1, “NERVE GROWTH INHIBITOR, CUTANEOUS-SENSORY-IRRITATION INHIBITOR, AND MARKER FOR CUTANEOUS-SENSORY-IRRITATION DETECTION” (HOYU CO., LTD., priority 2012, published 2015):

Experiments:
[1] = tested on: mast cell deficient mice (WBB6F1-W/W^V) and normal control mice (WBB6F1-+/+); assay: Scratch bouts of mice after 10% sodium laurate application (Sample Experiment 2); format: in vivo, mouse; conditions: 10% SL aqueous solution 50 μL single application, 2 hrs. after application, both mast cell deficient and normal control mice
Experimental: Male mast cell deficient mice at ages of 7 to 8 weeks (WBB6F1-W/W^V mouse), purchased from Japan SLC, and normal control mice that are wild mice at ages of 7 to 8 weeks (WBB6F1-+/+mouse) were used. They were given solid feed under free water supply and subjected to preliminary rearing for 7 days or longer under a constant temperature/constant humidity environment with a temperature of 22±2° C., and a humidity of 55±10% before they were used in the test. The mice for use were subjected to the test at least 3 days after shearing/depilating of the rostral back. […] That is, a single mouse was put in each of the 4 divided sections of an acrylic box (13×9×35 cm) to be acclimated for at least 1 hr., and they were video recorded in an environment without any person to record their action. Then, by watching the video, the number of scratch bouts against the rostral back by the hind leg was counted. A series of scratching movements (movements that include scratching the rostal back, where the solution is applied, with the hind leg, then dropping the hind leg to the ground) was counted as 1 count, and the number of times scratching was performed in 60 mins. was counted by visual observation. […]

[2] = tested on: histamine and active HDC (53 kDa) in mouse epidermis and dermis; assay: Histamine amount and HDC activation in ICR mouse skin after 10% sodium laurate (Sample Experiment 3); format: in vivo; conditions: ICR mice
Experimental: Male ICR mice at ages of 7 to 8 weeks, purchased from Japan SLC, were used. They were given solid feed under free water supply and subjected to preliminary rearing for 7 days or longer under a constant temperature/constant humidity environment with a temperature of 22±2° C., and a humidity of 55±10% before they were used in the test. The mice for use were subjected to the test at least 3 days after shearing/depilating of the rostral back. A 10% aqueous solution obtained by dissolving SL in distilled water was applied as a stimulating substance against the skin at 50 μL to the sheared/depilated rostral back of the mice mentioned above. Distilled water was applied to the solvent control group (Vehicle). Note concerning FIG. 5 and FIG. 6 to be described later that the mice that were not treated with the above SL aqueous solution or distilled water are called “NT (not treated).” The amount of histamine in skin was measured before applying a surfactant, 2 hrs. after application, and 24 hrs. after application (the time of application was set to 0 hr.). Skins were collected while the mice were under anesthesia after perfusion with a phosphate buffer solution (PBS) using the cardiac blood circulation system (punched out with a biopsy punch in a circular shape of a diameter of 18 mm). The amounts of histamine in the collected skins were measured. After the collected skins were immersed in PBS at 60° C. for 30 secs., they were separated into the epidermis and the dermis. Then, the amounts of histamine in the epidermis and the dermis were measured using the measurement kit. To measure the amount of histamine, tissues of both the epidermis and the dermis were pulverized to create tissue suspensions, which were subjected to centrifugation, then supernatants were collected to measure the amounts of histamine in the supernatants.

ICR mice = assay: Scratch bouts of ICR mice after 10% SDS application (Sample Experiment 1-1); format: in vivo, mouse; conditions: ICR mice of 10% SDS group at Day 3, TRF 30 mg/kg oral, 30 mins. before observation, 60 mins. count
Experimental: The present Sample Experiment was conducted using ICR mice, and an anionic surfactant, namely, sodium dodecyl sulfate (SDS), was used as a stimulating substance to analyze the scratch bouts of mice. After SDS had been applied, terfenadine (TRF) was administered as an antihistamine to determine its effect on scratch bouts.
Male ICR mice at ages of 7 to 8 weeks, purchased from Japan SLC, were used. The mice were given solid feed under free water supply and subjected to preliminary rearing for 7 days or longer under a constant temperature/constant humidity environment with a temperature of 22±2° C., and a humidity of 55±10% before they were used in the test. The mice for use were used in the test at least 3 days after shearing/depilating the rostral back of each mouse. […]
The scratch bouts of mice were performed in view of the Kuraishi et al. report. That is, a single mouse was put in each chamber of the 4 divided sections in an acrylic box (13×9×35 cm) to be acclimated for at least an hour, and they were video recorded in an environment without any person for at least an hour a day from the day of applying the above 10% SDS aqueous solution (Day 0) to the 4th day after application (Day 4) to record their movement. Then, by watching the video, the number of scratch bouts against the rostral back by the hind leg was counted. […]

[3] = 2 hrs. after 10% SL application
[4] = 24 hrs. after 10% SL application

Structure (SMILES)	scratch bouts of mice (number in 60 mins.) after stimulating substance [1]	active HDC (53 kDa) in mouse epidermis [2, 3]	histamine level in the epidermis [2, 3]	active HDC (53 kDa) in mouse epidermis [2, 4]	histamine level in the epidermis [2, 4]	histamine level of the dermis ([2]; before, 2 hrs. and 24 hrs. after 10% SL application)	scratch bouts of SDS-treated mice after TRF, After vs Before (ICR mice)
CCCCCCCCCCCC(=O)[O-].[Na+] [SL, sodium laurate]	clearly increased	increased significantly	increased	returned to the pre-application level	returned to the pre-application level	no substantial change was observed	
CC(C)(C)c1ccc(C(O)CCCN2CCC(C(O)(c3ccccc3)c3ccccc3)CC2)cc1 (stereo not shown) [TRF, terfenadine]							effectively suppressed
